Assay results as given in US20090233372A1, “COMPOSITIONS, KITS AND METHODS FOR DETERMINING ETIOLOGY OF TRALI AND DETECTING PATIENTS AT RISK FOR THIS TRANSFUSION REACTION” (Bonfils Blood Center, priority 2008, published 2009).

Columns and labels:
Type in all cases: cell-based
neutrophil oxidase = assay: Priming of the neutrophil oxidase / fMLP stimulated respiratory burst by biologically active compounds; details: added directly to the assay
From the text: The priming activity of plasma specimens from various sources including patient samples and blood components has been described herein. The effects on priming by various dilutions may correlate with the concentration of biologically active compounds in the specimens. Many of these compounds are well characterized and their priming activities determined. […] Each has its own concentration dependent effects. […] Similar effects are seen with complement fragments (e.g., C5a), other biologically active lipids (e.g., leukotrienes), and other compounds (e.g., sCD40L). Antibodies to neutrophil antigens (e.g., HNA-3a) also can prime the oxidase enzyme system. All these agents may be detected in plasma from blood components implicated in TRALI or plasma from patients sustaining a TRALI reaction. All may be added directly to the assay and priming activity detected as described in other sections.

[1] = tested on: peripheral blood neutrophils; assay: Priming assay using fluorescent probe (DHR) for hydrogen peroxide, flow cytometry
Description: Hydrogen peroxide (H2O2) is another reactive oxygen species produced by neutrophils when the NADPH oxidase and associated respiratory burst are activated. H2O2 can be detected intracellularly by incubating cells with dihydrorhodamine (DHR). This non-fluorescent compound will be oxidized to rhodamine, a potent fluorophore, when H2O2 is generated by activated neutrophils. This assay can be used to detect enhancement of the fMLP stimulated respiratory burst. […] Isolated peripheral blood neutrophils are incubated with 50 μM DHR. After exposure to fMLP (1 μM) or PAF (1 μM) for 3 minutes and fMLP (1 μM), the cells are placed on ice and samples analyzed with the evaluation of 10,000 events on a BD Canto flow cytometer. […] When PAF is used to prime the fMLP response, the result is a marked increase in H2O2 production expressed as MCF (˜250 MCF units).
This assay has been further optimized for the following reagents: DHR, 50 μM with the best loading time of 1 minute. Optional concentration of fMLP is 1 μM and PAF 1 μM. The assay should be analyzed in a flow cytometer as soon as possible but may be delayed up to 4 hours after completion without jeopardizing the results. Finally, plasma itself quenches the fluorescence. As a result the priming assay on this platform requires exposure of the cells to buffer or test sample for priming (PAF, plasma, etc), a low speed centrifugation to pellet cells, resuspension of cells in DHR containing buffer, then stimulation with fMLP. Determination of MCF is by analysis of 20,000 events. FIG. 6 summarizes results, expressed as mean ±SEM, with this assay in four separate experiments. Resting cells with buffer present very low levels of H2O2 with an increase when resting cells are stimulated with fMLP. Plasma from Day 0 and 7 stored platelet concentrates has little effect in the absence of fMLP.

neutrophils = assay: Detection of priming by chemiluminescence (Diogenes probe); details: priming sample, then fMLP; FIG. 7 and FIG. 8
Description: A third assay makes use of energy from chemiluminescence to determine oxygen radical generation from activated neutrophils. In this reaction, neutrophils are incubated with the priming sample or buffer, then exposed to fMLP after addition of the chemiluminescent probe, Diogenes, and the energy released determined in a chemiluminescence reader. The optimal cell concentration is between 2.5×10^6 cells/ml and 5×10^6 cells/ml. The chemiluminescence is >90% SOD inhibitable and so detects superoxide anion. The optimal addition of diogene is 20 μl to provide specific determination of oxygen radicals released by the neutrophils respiratory burst. […] Buffer alone is included for control. […] As with fluorescence platform, plasma nonspecifically quenches the chemiluminescence. This can be circumvented with an extra wash step to remove plasma after incubating cells with the priming stimulus. The resultant assay is sensitive to the effect in stored blood products. […] The priming effect for PAF is presented for comparison. The results are expressed as mean ±SEM. This platform, using chemiluminescence, can be used to determine priming by biologic samples.

cytoplasts = assay: Cytoplast priming assay, superoxide anion measured as cytochrome c reduction; details: PAF 1 μM, fMLP 1 μM
Description: Cytoplasts are neutrophils which have been sedimented on a 20% Ficoll gradient at 77,000×g. Cytoplasts, are devoid of nucleus, granules and other subcellular organelles. Cytoplasts retain the ability for random and directed migration, phagocytosis of opsonized particles as well as activation of a respiratory burst and generation of reactive oxygen species. They can be frozen at −70° C. and thawed; the thawed cytoplasts can be used as targets for priming activity. The advantage is that cytoplasts would be readily available for assaying priming activity of biologic specimens (FIG. 1B, 113) in place of freshly isolated neutrophils from a healthy donor.

## IL-8: cytokine/chemokine found in biologically active plasma samples
Neutrophil oxidase
  priming of the fMLP stimulated respiratory burst: concentration dependent priming

## TNF-alpha
Neutrophil oxidase
  priming of the fMLP stimulated respiratory burst: concentration dependent priming

## fMLP
[1]; fMLP 1 μM by itself, 50 μM DHR, FIG. 5
  mean channel fluorescence (H2O2 production): 45

## platelet activating factor [PAF]
[1]; PAF 1 μM for 3 minutes, then fMLP 1 μM, 50 μM DHR, FIG. 5
  H2O2 production expressed as MCF: ~250 MCF units
[1]; priming sample, then fMLP, four separate experiments, FIG. 6
  priming of the fMLP stimulated respiratory burst (H2O2, MCF): markedly enhanced
neutrophils
  priming of the fMLP stimulated chemiluminescence (RLUs): higher level of relative light units (RLUs) as well as a more prolonged time course at maximal production
cytoplasts
  enhancement of the fMLP stimulated respiratory burst by priming: 1.6 to 2.0 fold
